Tests used:
[1] = test system: MDA-MB-231/breast cancer cells; experiment: MTT-cell proliferation assay; type: cell-based, human; details: for IC50: 48 h drug exposure, mean of three experiments ± SEM
Source text: (§1) The potential anti-cancer activity of all fourteen final synthesized compounds was investigated through MTT cytotoxic assay against two different human solid cancerous cell lines; A549/lung and MDA-MB-231/breast adenocarcinoma. The adopted cell-proliferation assay assessed % cell viability in relation to the reducing activity of cellular NADPH-dependent cellular oxidoreductases on tetrazolium dye, MTT [2,5-diphenyl-3-(4,5-dimethylthiazol-2-yl)tetrazolium bromide salt], for furnishing an easily quantified insoluble chromogenic formazan. For each drug concentration, 0.1, 1, 10, and 100 μM, the % cell-viability was estimated relative to negative control following a complete 48 h of drug treatment. Both 5-fluorouracil (5-FU) and doxorubicin (DOX) were set as positive index comparators. Moreover, the safety profile of the synthesized compounds was further investigated by examining their in-vitro cytotoxicity on non-cancerous cell line; MDCK/kidney cells.
(§2) Evaluating the cytotoxicity of tested compounds on two cancer cell lines (A549/lung and MDA-MB-231/breast adenocarcinoma) and non-cancerous (MDCK/kidney cells) was performed while adopting the formerly described method with small alterations. Cancer cell lines were propagated within Dulbecco’s Modified Eagle Medium-High Glucose (Cat.#: P0103; DMEM_High Glucose with Na.Pyruvate and stable Glutamine, Biowest^TM, Nuaillé, France), while MDA-MB-231 cells were propagated within RPMI-1640 L-Glutamine medium (Cat.#:12-604F; Lonza-Verviers SPRL^TM, Verviers, Belgium). The culturing media were supplemented via 1% antibiotic-antimycotic 100X (Cat.#: L0010; Biowest^TM, Nuaillé, France) and 10% fetal bovine serum (FBS) (Cat.#: EU-000-H; Seralab^TM, West Sussex, UK). Cells were seeded as triplicates within 96-well plate, at 1 × 10^4 cells per well density, after being counted and viability checked using the trypan blue staining solution (Cat.# ab233465; Abcam^TM, Cambridge, MA, USA). Seeded cells were permitted to adhere for 24 h under 5% CO2 and at 37 °C incubating conditions. The assigned compounds were dissolved in 500 µL DMSO affording the stock solution (100 mM) being ready for more diluting within the whole medium to obtain the compound’s final concentrations; 0.1, 1, 10, 100 µM for cell treatments. […] Following 24 h compound-cell treatment, the medium was substituted by fresh one and cells were permitted to develop for 48 h. At four hours prior the end of incubation, 10 μL MTT Sigma-Aldrich^TM (5 mg/mL in PBS 1X without magnesium and calcium; Cat.# 17-516F, Lonza-Verviers^TM, Basel, Switzerland) were added to all wells. Following the complete 48 h incubation, 100 μL DMSO was all added to all wells where they were subsequently centrifuged at 4000 rpm for 5 min allowing the formazan crystals of formazan to precipitate. Color was established and intensities were recorded at 490 nm using Synergy-Neo2® Hybrid MultiMode Plate Reader (BioTek^TM, Winooski, VT, USA), while subtracting the multi-well plates background absorbance at 690 nm. Percentage cell viability was estimated using the subsequent formula: % cell-viability = (average absorbance of treated wells/average absorbance of controls) × 100.

[2] = test system: MDCK/kidney non-cancerous cells; experiment: MTT-cell proliferation assay on non-cancerous cell line; type: cell-based; details: Canis lupus familiaris, MDCK, 48 h, 48 h drug exposure, mean ± SEM
Source text: as §1, §2

A549/lung adenocarcinoma = experiment: Morphological assessment; type: cell-based, human; details: 0.1-100 µM (5-FU 100 µM), 48 h, phase-contrast microscope
[3] = test system: A549/lung adenocarcinoma cells; experiment: MTT-cell proliferation assay; type: cell-based, human; details: for IC50: Homo sapiens, A549, 48 h drug exposure, mean of three experiments ± SEM
Source text: as §1, §2

| Structure (SMILES) | melting point [°C] | IC50 ([1]; Homo sapiens, MDA-MB-231, 48 h) [µM] | further results |
| --- | --- | --- | --- |
| Cc1nn(-c2ccc([N+](=O)[O-])c([N+](=O)[O-])c2)c(Cl)c1C=NNC(=O)c1cc2ccccc2[nH]1 [Compound 8f, N′-((5-chloro-1-(3,4-dinitrophenyl)-3-methyl-1H-pyrazol-4-yl)methylene)-1H-indole-2-carbohydrazide] | 204 to 206 | 31.5 | IC50 [1]: 21.6 ± 0.28 µM |
| COc1ccc(C=NNC(=O)c2cc3ccccc3[nH]2)cc1 [Compound 7b, N′-(4-methoxybenzylidene)-1H-indole-2-carbohydrazide] | 104 to 106 | 43.8 ± 1.09 | IC50 [2]: 28.9 ± 1.49 µM |
| CC(C)Cc1ccc(-c2nn(-c3ccccc3)cc2C=NNC(=O)c2cc3ccccc3[nH]2)cc1 [Compound 8d, N′-((3-(4-isobutylphenyl)-1-phenyl-1H-pyrazol-4-yl)methylene)-1H-indole-2-carbohydrazide] | 229 to 231 | 21.6 | IC50 [1]: 31.5 ± 4.66 µM |
| O=c1[nH]cc(F)c(=O)[nH]1 [Compound 5-FU, 5-fluorouracil, reference compound] | – | – | cell morphology alterations (A549/lung adenocarcinoma): epithelial-mesenchymal transition was observed |
| CCc1ccc(-c2nn(-c3ccccc3)cc2C=NNC(=O)c2cc3ccccc3[nH]2)cc1 [Compound 8a, N′-((3-(4-ethylphenyl)-1-phenyl-1H-pyrazol-4-yl)methylene)-1H-indole-2-carbohydrazide] | 254 to 256 | 12.7 ± 0.84 | IC50 [2]: 73.9 ± 2.3 µM; IC50 [3]: 23.1 ± 1.45 µM |
| O=C(NN=Cc1cccnc1)c1cc2ccccc2[nH]1 [Compound 7d, N′-(pyridin-3-ylmethylene)-1H-indole-2-carbohydrazide] | 252 to 254 | 17.4 ± 3.23 | – |
| CC(C)c1ccc(-c2nn(-c3ccccc3)cc2C=NNC(=O)c2cc3ccccc3[nH]2)cc1 [Compound 8c, N′-((3-(4-isopropylphenyl)-1-phenyl-1H-pyrazol-4-yl)methylene)-1H-indole-2-carbohydrazide] | 219 to 221 | 12.8 ± 3.5 | IC50 [2]: 87.3 ± 3 µM; IC50 [3]: 11.6 ± 2.57 µM |

Further lines, with some results ahead:

| melting point [°C] | IC50 ([1]; Homo sapiens, MDA-MB-231, 48 h) [µM] | Structure (SMILES) | further results |
| --- | --- | --- | --- |
| 90 to 92 | – | CN(C)c1ccc(C=NNC(=O)c2cc3ccccc3[nH]2)cc1 [Compound 7c, N′-(4-(dimethylamino)benzylidene)-1H-indole-2-carbohydrazide] | – |
| 139 to 141 | 29.7 ± 4.03 | Cc1cccc(NCc2nc3ccccc3[nH]2)c1 [Compound 3a, N-((1H-benzo[d]imidazol-2-yl)methyl)-3-methylaniline] | – |
| 139 to 141 | – | Oc1ccc(NCc2nc3ccccc3[nH]2)cc1 [Compound 3d, 4-(((1H-benzo[d]imidazol-2-yl)methyl)amino)phenol] | – |
| 139 to 141 | – | Brc1cccc(NCc2nc3ccccc3[nH]2)c1 [Compound 3c, N-((1H-benzo[d]imidazol-2-yl)methyl)-3-bromoaniline] | effect on cell proliferation ([1]; 100 µM drug concentration): enhanced cell proliferation |
| 159 to 161 | – | Cc1cccc(C)c1NCc1nc2ccccc2[nH]1 [Compound 3b, N-((1H-benzo[d]imidazol-2-yl)methyl)-2,6-dimethylaniline] | effect on cell proliferation ([3]; 0.1-100 µM): irregular effects with tendency to increase the cell proliferation |
| 111 to 113 | – | O=C(NN=Cc1ccccc1)c1cc2ccccc2[nH]1 [Compound 7a, N′-benzylidene-1H-indole-2-carbohydrazide] | – |

Source: paper PMC7912796, “Design, Synthesis, Anticancer Activity, and Solid Lipid Nanoparticle Formulation of Indole- and Benzimidazole-Based Compounds as Pro-Apoptotic Agents Targeting Bcl-2 Protein” (Pharmaceuticals, 2021)
